According to PMC11494886, “Discovery and design of molecular glue enhancers of CDK12–DDB1 interactions for targeted degradation of cyclin K” (RSC Chemical Biology, 2024):
Like-named read-outs stand apart in the source and are kept apart here.

Assays:
CDK12/cyclin K + DDB1 = biological target: T1, CDK12/cyclin K + DDB1 (Homo sapiens, UniProt Q16531+Q9NYV4, DEL396-705); assay: Microscale thermophoresis, ternary complex formation; assay type: binding; settings: MST
T1 construct: The kinase domain of human CDK12 (Uniprot: Q9NYV4; a.a; 715–1050); GST (N, cleaved yes); made in house; host or cells: Spodoptera frugiperda SF9 insect cells (Bac-to-Bac); CDK12/cyclin K co-infected with S. cerevisiae CAK1
Method: Finally, the capacity of small molecules to induce a ternary complex between CDK12/cyclin K and DDB1 in vitro was assessed by microscale thermophoresis (MST). Labeled DDB1ΔBPB was combined with purified CDK12/cyclin K, and fluorescence intensity was monitored with increasing compound concentrations.
Cell pellets were harvested 48 hours post infection via centrifugation and lysed in buffer A (50 mM Tris–HCl (pH 8.0), 200 mM NaCl, 10 mM imidazole, 0.5 mM tris(2-carboxyethyl) phosphine (TCEP)) supplemented with EDTA-free Pierce™ protease inhibitor tablet (Thermo Fisher Scientific). […] The concentrated protein at 2 mg mL^−1 was flash-frozen in liquid nitrogen and stored at −80 °C.
Full-length S. cerevisiae CAK1 (Uniprot: P43568) with an N-terminal His6 tag was subcloned into pFastBac 1 vector. […] The eluted CDK12/cyclin K complex was concentrated to 2 mg mL^−1, flash-frozen in liquid nitrogen and stored at −80 °C.
A protocol to assess ternary binding of molecular glues with CDK12/cycK and DDB1 by MST was established using published procedures for PROTAC interaction with bromodomains and E3 ubiquitin ligases.[38] His8-DDB1-ΔBPB was labeled with the MO-L018 Monolith™ His-tag Labeling Kit RED-tris-NTA 2nd Generation (NanoTemper Technologies) following the instruction manual. 100 nM dye was mixed with 200 nM DDB1 in 50 mM HEPES pH 7.5, 150 mM NaCl, 5% glycerol, 0.05% Tween, and incubated at room temperature for 30 min. […] MST traces were recorded using standard parameters: 5 s MST power off, 30 s MST power on and 5 s MST power off. Measurements were taken at −1 to 0 s (cold region) and 9–10 s (hot region). Data were analyzed using a fitting function derived from the law of mass action:1 [drawing 6] where f(c) is the fluorescence signal (Fnorm) at a given ligand concentration (c), B is Fnorm of fully liganded DDB1 at high ligand concentrations, U is Fnorm of DDB1 alone at low ligand concentrations, Kd is the dissociation constant or binding affinity, cT is the final concentration of DDB1 in the assay (Fig. 3G). For normalization, the data were first transformed using eqn (2) where y is the fraction bound, followed by fitting to eqn (3) (Fig. 5B–E).2 [drawing 7] 3 [drawing 8]

cyclin K [1] = assay: Immunofluorescence of nuclear cyclin K in MDA-MB-231 cells; assay type: cell-based, human
Method: Cells were fixed with 4% PFA in PBS at room temperature, permeabilized with 0.1% Triton X-100 in PBS, and blocked with 3% BSA in PBS at room temperature. Cells were incubated with primary antibodies overnight at 4 °C, followed by incubation with Alexa-Fluor conjugated secondary antibodies for 1 hour at room temperature. Cell nuclei were stained using DAPI. Images were acquired on a confocal microscope (Leica). ImageJ and QuPath were used for image analysis.
Figure S8. Immunofluorescence staining for cyclin K degradation. MDA-MB-231 cells were
treated for 2 h with either DMSO or the indicated compounds (0.5 µM) . Cells were fixed and
Nuclei were stained with DAPI (blue). […]

MDA-MB-231 cells = assay: CellTiter-Glo viability assay, WT MDA-MB-231; assay type: cell-based; settings: Homo sapiens; wild type MDA-MB-231; read-out: EC50 (WT) cell viability
Text: MDA-MB-231 (human triple-negative breast cancer cells) and HEK293T (human embryonic kidney cells) were purchased from the American type culture collection (ATCC) and maintained in Dulbecco's modified Eagle's medium (DMEM) (Gibco) supplemented with 10% (v/v) heat-inactivated fetal bovine serum (FBS) (Gibco) and penicillin/streptomycin (100 U mL^−1 each). HiBiT-CCNK KI A549 cells, purchased from Promega, were maintained in F12 medium supplemented with 10% (v/v) heat-inactivated fetal bovine serum (FBS) (Gibco) and penicillin/streptomycin (100 U mL^−1 each). DDB1-knockdown MDA-MB-231 and DDB1-knockdown HEK293T cell lines were maintained in the same media formulation as their corresponding wild-type cell lines. All cell lines were cultured at 37 °C in an incubator with CO2 levels maintained at 5%.
(§1) Cell viability was measured by Cell Titer Glo assay kit (Promega, USA). EC50 was determined from the nonlinear regression and a four-parameter algorithm on the GraphPad Prism software.

[2] = test system: MDA-MB-231DDB1-shRNA cells; assay: CellTiter-Glo viability assay, MDA-MB-231 DDB1-shRNA; assay type: cell-based, human; settings: Homo sapiens; MDA-MB-231 DDB1-shRNA; read-out: EC50 (DDB1 shRNA) cell viability
Text: For stable genetic knock-down of DDB1 in cells, predesigned and validated TRC2-pLKO-puro shRNA plasmids for DDB1 (TRCN0000082855 and TRCN0000082856), and a non-targeting shRNA plasmid (SHC001) were obtained from Millipore Sigma. All plasmids were purified using the Qiagen Maxiprep kit (Qiagen). FuGENE HD 6 transfection reagent (Promega) was used for transfection of plasmids and lentiviral gene/shRNA constructs. Mission lentiviral packaging mix (Millipore Sigma) was used to package lentiviral plasmids into lentiviral particles in HEK293T cells, as per manufacturer's protocols. The resultant virus was concentrated using Vivaspin 20 centrifugal concentrators (Sartorius). MDA-MB-231 and HEK293T cells were transduced with lentivirus. Stable knocked down DDB1 (shDDB1-231 and shDDB1-HEK293T) cells were generated after selection with the antibiotic puromycin, and genetic knockdown was confirmed by western blotting.
as §1

cyclin K [3] = assay: Immunoblot of cyclin K levels in MDA-MB-231 cells; assay type: cell-based, human; settings: SR-4835 500 nM, SR-4784 1-2 μM 2 hours, SR-4784-PAP 2 μM 2 hours
Method: THZ531 was used as a negative control as it is known to make a covalent bond with Cys1039 in a C-terminal extension of the kinase domain, thereby preventing this helix-loop-helix (HLH)-like fold from binding in a cleft between the DDB1 BPA and BPC domains (Fig. 1B, right panels). […] An immunofluorescence-based assay developed for visualizing loss of nuclear cyclin K also confirmed the above observations (Fig. 1H and Fig. S1, ESI ^†).
Total cell lysates were prepared using RIPA lysis buffer (Millipore Sigma) supplemented with protease and phosphatase inhibitors (Roche). Protein concentrations were estimated using the BCA protein assay kit (Pierce, Thermo Fisher Scientific). Equal amounts of proteins were separated using NuPAGE 4–12% Bis-Tris gels (Thermo Fisher Scientific). For CLICK chemistry pulldown experiments, proteins in the eluates were resolved using 3–8% Tris–acetate gels (Thermo Fisher Scientific). Proteins were transferred to nitrocellulose membranes using NuPAGE transfer buffer (Thermo Fisher Scientific). Membranes were blocked in LI-COR blocking buffer for 1 hour at room temperature and then probed with primary antibodies diluted in the same blocking buffer overnight at 4 °C. To detect the primary antibodies, membranes were incubated with IR-680 or IR-800 conjugated secondary antibodies (LI-COR) diluted in LI-COR blocking buffer at room temperature for 1 hour. Washes with 0.01% Tween-phosphate buffer were performed after primary and secondary antibody incubation steps. Signals from the membrane were recorded by scanning on a LI-COR Odyssey imager. Bands were quantified using Image Studio Lite (LI-COR Biosciences) or the ImageJ program.
To visualize the degradation of cyclin K, total cell lysates were subjected to SDS-PAGE and western blotting.

[4] = labeled DDB1 + CDK12/cyclin K, run #1, read-out: Kd ternary complex formation, replicate #1
[5] = labeled DDB1 + CDK12/cyclin K, run #2, read-out: Kd ternary complex formation, replicate #2
[6] = labeled DDB1 + CDK12/cyclin K, run #3, read-out: Kd ternary complex formation, replicate #3
[7] = labeled DDB1ΔBPB 10 nM + CDK12/cyclin K 1000 nM, mean of replicates, read-out: Kd ternary complex formation (average)

T1 sequence (Q16531 with tags, fused parts or gaps DEL396-705): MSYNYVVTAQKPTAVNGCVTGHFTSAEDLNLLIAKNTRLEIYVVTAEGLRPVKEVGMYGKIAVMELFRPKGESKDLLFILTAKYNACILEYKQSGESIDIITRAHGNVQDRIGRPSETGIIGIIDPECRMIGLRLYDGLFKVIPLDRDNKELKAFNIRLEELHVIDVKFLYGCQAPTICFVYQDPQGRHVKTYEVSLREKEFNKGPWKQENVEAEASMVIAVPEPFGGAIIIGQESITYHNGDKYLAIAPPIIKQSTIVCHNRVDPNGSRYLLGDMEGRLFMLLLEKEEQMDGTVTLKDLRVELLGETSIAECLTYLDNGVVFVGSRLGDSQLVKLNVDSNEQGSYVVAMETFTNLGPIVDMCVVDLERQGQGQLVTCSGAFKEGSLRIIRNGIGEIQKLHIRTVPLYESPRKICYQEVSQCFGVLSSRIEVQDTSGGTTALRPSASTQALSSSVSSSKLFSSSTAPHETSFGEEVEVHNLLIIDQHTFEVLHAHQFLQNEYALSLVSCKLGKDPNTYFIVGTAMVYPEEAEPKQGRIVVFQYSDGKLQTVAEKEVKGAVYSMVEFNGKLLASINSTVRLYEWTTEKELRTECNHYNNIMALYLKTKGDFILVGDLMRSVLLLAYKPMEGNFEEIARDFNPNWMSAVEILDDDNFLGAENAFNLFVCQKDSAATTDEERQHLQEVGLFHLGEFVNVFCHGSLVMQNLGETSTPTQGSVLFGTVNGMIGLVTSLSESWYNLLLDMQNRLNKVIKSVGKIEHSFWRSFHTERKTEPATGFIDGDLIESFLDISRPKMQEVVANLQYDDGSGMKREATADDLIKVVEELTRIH
T1 sequence (Q9NYV4 715-1050, stated change not applied): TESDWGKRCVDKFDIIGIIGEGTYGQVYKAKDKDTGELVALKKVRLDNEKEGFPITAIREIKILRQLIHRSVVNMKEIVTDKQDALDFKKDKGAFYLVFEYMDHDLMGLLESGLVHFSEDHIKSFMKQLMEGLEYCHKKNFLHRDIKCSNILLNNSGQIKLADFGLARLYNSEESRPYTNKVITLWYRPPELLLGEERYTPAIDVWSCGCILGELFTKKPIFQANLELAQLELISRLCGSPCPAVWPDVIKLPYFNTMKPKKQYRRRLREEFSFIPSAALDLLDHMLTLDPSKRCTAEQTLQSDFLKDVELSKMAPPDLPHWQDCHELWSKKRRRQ
T1 sequence (O75909 11-267 partner limits assumed): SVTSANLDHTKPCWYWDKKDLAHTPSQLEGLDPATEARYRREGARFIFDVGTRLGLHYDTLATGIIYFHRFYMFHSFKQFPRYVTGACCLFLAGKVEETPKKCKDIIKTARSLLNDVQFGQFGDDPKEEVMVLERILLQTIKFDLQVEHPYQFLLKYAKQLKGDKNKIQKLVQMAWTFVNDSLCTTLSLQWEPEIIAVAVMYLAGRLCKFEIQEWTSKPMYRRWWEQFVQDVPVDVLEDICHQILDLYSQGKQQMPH

| SMILES | Kd (CDK12/cyclin K + DDB1; [4]) | Kd (CDK12/cyclin K + DDB1; [5]) | Kd (CDK12/cyclin K + DDB1; [6]) | Kd (CDK12/cyclin K + DDB1; [7]) | EC50 (MDA-MB-231 cells) | EC50 [2] | cyclin K nuclear intensity compared to control (cyclin K [1]; MDA-MB-231 cells, 0.5 µM, 2 h) | cyclin K degradation (immunoblot) (cyclin K [3]) | ability to induce ternary complex (CDK12/cyclin K + DDB1; labeled DDB1ΔBPB + CDK12/cyclin K) | cyclin K nuclear intensity compared to control (cyclin K [1]) |
| --- | --- | --- | --- | --- | --- | --- | --- | --- | --- | --- |
| C#CCCC1(CCC(=O)N2CCN(c3nc(NCc4nc5cc(Cl)c(Cl)cc5[nH]4)c4ncn(-c5cnn(C)c5)c4n3)CC2)N=N1 [SR-4784-PAP, 3-(3-(But-3-yn-1-yl)-3H-diazirin-3-yl)-1-(4-(6-(((5,6-dichloro-1H-benzo[d]imidazol-2-yl)methyl)amino)-9-(1-methyl-1H-pyrazol-4-yl)-9H-purin-2-yl)piperazin-1-yl)propan-1-one] | – | – | – | – | – | – | – | degraded cyclin K in a proteasome-dependent manner | – | – |
| CCc1cnn2c(NCc3ccc[n+]([O-])c3)cc(N3CCCC[C@H]3CCO)nc12 [dinaciclib, reference compound] | – | – | – | – | – | – | – | – | lacked the ability to induce a ternary complex | not affected |

The next lines start with results.

| Kd (CDK12/cyclin K + DDB1; [4]) | Kd (CDK12/cyclin K + DDB1; [5]) | Kd (CDK12/cyclin K + DDB1; [6]) | Kd (CDK12/cyclin K + DDB1; [7]) | EC50 (MDA-MB-231 cells) | EC50 [2] | SMILES | cyclin K nuclear intensity compared to control (cyclin K [1]; MDA-MB-231 cells, 0.5 µM, 2 h) | cyclin K degradation (immunoblot) (cyclin K [3]) | ability to induce ternary complex (CDK12/cyclin K + DDB1; labeled DDB1ΔBPB + CDK12/cyclin K) | cyclin K nuclear intensity compared to control (cyclin K [1]) |
| --- | --- | --- | --- | --- | --- | --- | --- | --- | --- | --- |
| 0.409 ± 0.117 µM | 0.347 ± 0.0983 µM | 0.528 ± 0.295 µM | 0.428 µM | – | – | Cn1cc(-c2cnn3c(NCc4nc5cc(Cl)c(Cl)cc5[nH]4)nc(N4CCOCC4)nc23)cn1 [MR-1014, N-((5,6-Dichloro-1H-benzo[d]imidazol-2-yl)methyl)-8-(1-methyl-1H-pyrazol-4-yl)-2-morpholinopyrazolo[1,5-a][1,3,5]triazin-4-amine] | reduced | – | – | – |
| 0.0243 ± 0.009 µM | 0.0313 ± 0.0174 µM | 0.0376 ± 0.0233 µM | 0.0311 ± 0.0067 µM | – | – | Clc1cccc2nc(CNc3cc(N4CCNCC4)nn4c(-c5ccsc5)cnc34)[nH]c12 [MR-1110, N-((7-Chloro-1H-benzo[d]imidazol-2-yl)methyl)-6-(piperazin-1-yl)-3-(thiophen-3-yl)imidazo[1,2-b]pyridazin-8-amine] | reduced | – | – | – |
| 0.137 ± 0.0333 µM | 0.122 ± 0.0546 µM | 0.152 ± 0.0637 µM | 0.137 ± 0.015 µM | – | – | CN1CC=C(c2cn3c(-c4cnn(C(F)F)c4)cnc3c(NCc3nc4cc(Cl)c(Cl)cc4[nH]3)n2)CC1 [MR-1187, N-((5,6-Dichloro-1H-benzo[d]imidazol-2-yl)methyl)-3-(1-(difluoromethyl)-1H-pyrazol-4-yl)-6-(1-methyl-1,2,3,6-tetrahydropyridin-4-yl)imidazo[1,2-a]pyrazin-8-amine] | reduced | – | – | – |
| – | – | – | – | 0.263 µM | 0.796 µM | Cn1cc(-n2cnc3c(NCc4nc5cc(Cl)c(Cl)cc5[nH]4)nc(N4CCNCC4)nc32)cn1 [SR-4784, N-((5,6-dichloro-1H-benzo[d]imidazol-2-yl)methyl)-9-(1-methyl-1H-pyrazol-4-yl)-2-(piperazin-1-yl)-9H-purin-6-amine] | – | induced cyclin K degradation | – | – |
